Assay results taken from patent publication US9642922B2, “Caspase-triggered nano-aggregation probes and methods of use” (The Board of Trustees of the Leland Stanford Junior …, priority 2013, dated 2017).
Numbered stars: 1 amine (or outer) side, 2 acyl side, 3 side chain; on linkers, the order of the positions; unused ones are H or OH. Square brackets hold non-standard residues; d marks the D form. Peptide text beside a SMILES is read from it. * marks the point of attachment. DOTA = O=C(O)CN1CCN(CC(=O)O)CCN(CC(=O)*)CCN(CC(=O)O)CC1; X1 = O=C(C1CSC(c2nc3ccc(N[*:1])cc3s2)=N1)[*:2]; X3 = c1cnc2ccc(OCCCN*)cc2c1; SEt = CCS*

What was measured:
[1] = tested on: subcutaneous HeLa tumors; experiment: In vivo MR imaging of doxorubicin-treated HeLa tumors; set-up: species or system mouse; conditions: up to 4 h
Description: Evaluation of activatable contrast agent probe 15 for MR imaging of caspase-3 activity in vivo was performed in nude mice bearing subcutaneous HeLa tumors. Tumors were implanted and grown for 10-15 days before receiving intratumoral injections of two doses of 0.2 mg doxorubicin separated by 2 days. Probe 15 or 1-ctrl (19) (0.1 mmol kg^−1) was injected intravenously the day before treatment (baseline) and four days post-treatment (treated). Spin-echo T1-weighted multislice MR images at 1 T were recorded before (pre-contrast) and every 4 min after contrast agent administration (post-contrast), and scanning was carried out for 4 h post-contrast for each mouse. Much brighter MR signals (T1 contrast) were observed 40 and 120 min after injection with probe 15 in treated tumors as compared to that in baseline tumors (FIG. 29A), or in treated tumors with 1-ctrl (19) (FIG. 29B).
In vivo MR imaging was performed on an Aspect M2 1T permanent magnet (Aspect Imaging, Shoham, Israel) using a 40 mm Transmit/Receive mouse body coil. During imaging, the animals were anaesthetized with isofluorane and their respiration and body temperature were constantly monitored. Intravenous contrast injection at 0.1 mmol/kg concentration was administered in a 100 μL volume for every imaging session. Multi-slice (312 μm in-plane, 12 slices with 1 mm thickness) T1-weighted spin echo images (TE/TR=8.9/250 ms, matrix 128×128, FOV=40 mm, NEX=6) were acquired, one before contrast injection and then every 4 min up to 4 h after contrast injection. A 1 mM Dotarem reference tube was inserted in the field of view to enable inter-session variability correction during post-processing. Each animal underwent two imaging session; one before DOX treatment (baseline), and one after DOX treatment (treated).
Acquired MR data were transferred as DICOM images to an offline workstation and ImageJ (NIH) was used for post processing and quantitative image analysis. This consisted of manual segmentation of tumor ROI for each slice, slice-wise normalization of mean tumor signal intensity with the 1 mM Dotarem reference standard to account for inter-session variability, followed by combining these normalized, slice-wise values to generate mean volumetric tumor signal intensities (SI) for each time point.
Signal enhancement was calculated at each time point as the difference between the tumor SI at that time point and the tumor SI in the pre-contrast (t=0) dataset. SE(t)=SI(t)−SI(t=0); for each mouse, for every session
This metric was used to quantify the difference in SE between the baseline (before DOX treatment) session and the treated session for each mouse, as a means to tease out the difference between the two contrast agents, probe 1 and 1-cntl (19) over the time course of the imaging session. % D(t)=[SE(t,treated)−SE(t,baseline)]/SE(t,baseline); for each mouse.

[2] = target: T1, caspase-3 (Homo sapiens, UniProt P42574); experiment: HPLC assay of caspase-3-triggered cyclization of MRI probe 15; assay type: biochemical; set-up: purchased Sigma; host or cells: E. coli
T1 sequence (P42574 29-175 limits assumed): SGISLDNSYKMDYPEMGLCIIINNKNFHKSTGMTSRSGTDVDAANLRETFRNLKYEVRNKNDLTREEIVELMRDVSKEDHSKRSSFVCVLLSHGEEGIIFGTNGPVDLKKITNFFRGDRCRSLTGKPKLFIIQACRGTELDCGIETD
T1 sequence (P42574 176-277 limits assumed): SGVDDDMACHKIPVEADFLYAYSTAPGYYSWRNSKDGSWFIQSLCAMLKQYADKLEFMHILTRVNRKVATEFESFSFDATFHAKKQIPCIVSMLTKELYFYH
Description: The progression of caspase-3-triggered intramolecular cyclization of probe 15 in solution was investigated by incubation (200 μM) with recombinant human caspase-3 (50 nM) using high-performance liquid chromatography (HPLC). […] More than 90% of probe 15 and its disulfide bond reduced intermediates could be converted after 5 h (FIG. 27B).

[3] = Water proton r1 relaxivity measurement; assay type: physicochemical; conditions: 1 T
Description: Water proton r1 relaxivities of probe 15 and 1-ctrl (19) before and after caspase-3 incubation were then measured at 1, 1.5 and 3 T. For comparison, the isolated cyclized products 2-I and 2-II were also measured.
A series of solutions containing contrast agents with five different concentrations (0.05-0.5 mM) in Caspase buffer (pH 7.4) were treated with or without Casp-3 (50 nM) at 37° C. overnight. The solutions were placed in PCR tubes, bundled together, and MR-imaged at 1 T (Bruker Icon, Bruker BioSpin Corp.), […], 1.5 and 3 T (Signa HDx, GE Healthcare) at room temperature.
The scanning procedure began with a localizer and then consisted of a series of inversion-prepared fast spin echo scans, identical in all aspects (TR 8000 ms (6000 ms for Bruker Icon), TE minimum, field of view 6 cm, slice thickness 2 mm, matrix 128×128, NEX 1) except for the inversion time (TI) that was varied as: 4000, 2400, 1200, 800, 600, 400, 300, 200, 100, and 50 ms. For quantitative data analysis, the acquired MR images were transferred as DICOM images to an offline workstation, and signal intensities were extracted from each of the 5 samples at each of the 10 TI times by manual region of interest (ROI) placement and voxel averaging within the ROI.
Signal intensity versus TI relationships were fit to the following exponential T1 recovery model by non-linear least squares regression: SI (TI)=S0[1−2*exp(−TI/T1)+exp(−TR/T1)]. Relaxation rates (R1) were determined as 1/T1. Longitudinal relaxivities (r1, units of mM^−1s^−1) were calculated as the slope of R1 vs [Gd] after the determination of true Gd concentration of each sample by the ICP-MS measurement.

[4] = tested on: HeLa cells; experiment: ICP-MS cellular uptake of Gd in HeLa cells; assay type: cell-based, human; conditions: 250 μM, 24 h
Description: The cellular uptake of Gd was studied by inductively-coupled plasma mass spectrometry (ICP-MS) analysis of the amount of Gd in viable and apoptotic cells after incubation with probe 15 (50-250 μM) for 24 h. […] This uptake enhancement was inhibitable by Z-VAD-fmk (50 μM), confirming the caspase-3-dependent accumulation of probe 15 in apoptotic cells.

[5] = tested on: HeLa tumor xenograft; experiment: PET imaging of HeLa tumor xenograft-bearing nude mice; assay type: in vivo, mouse
Description: One group of animals was scanned at baseline (before treatment) and 4 days post treatment with 0.2 mg doxorubicin injected into the tumor. On the day of scanning, the animals were moved from their housing area to the PET scanner around 1 h prior to the experiment. They were constrained shortly in a tail veiner and injected intravenously, with 440±97 μCi (16±3 MBq) [^18F]C-SNAT formulation. They were anesthetized with 2% isoflurane shortly before placement in an R4 microPET scanner (Siemens Medical Solutions, USA). The anesthesia were continued with 2% isoflurane doing 5 min of acquisition. Scans using the control tracer 1-D (173±73 μCi/9±4 Mbq in 200 μL formulation) were carried out in a similar manner using two groups (one baseline and one treated) instead of the same animals at baseline and after treatment. The images were reconstructed using a standard 2D reconstruction without attenuation correction.
The reconstructed images were analyzed by making two volumes of interest (VOI), one on the tumor and one located on the left shoulder corresponding to muscle/bone mixture. The percent of injected dose per gram tissue (% ID/g) was calculated in each VOI and the ratio between tumor and muscle uptake was calculated based on this uptake (uptake in tumor/uptake in muscle region). The effect of treatment was calculated as the difference in uptake of [^18F]C-SNAT at baseline and after treatment.
Evaluation of activatable PET tracer 1 and control tracer 1-D for PET imaging of caspase-3 activity in vivo was performed in HeLa tumor xenograft-bearing nude mice. Tumors were implanted and grown for a minimum of 10 d before receiving intratumoral injection of 0.2 mg DOX (20 μL). 1 or 1-D (5-15 MBq/135-405 μCi) was injected through the tail vein for PET imaging 4 d post treatment. Static PET scans (5 min) were performed 65, 125 and 182 mins post tracer injection.

[6] = Stability of PET tracers in mouse serum; assay type: in vitro ADME; conditions: 1 h incubation, 37° C.
Description: To the mouse serum (500 μL) 100 μL (approximately 100 μCi/3.7 MBq) of radioactive sample was added and the mixture was incubated at 37° C. At each time point, 100 μL of sample was taken and after mixing with 100 μL of acetonitrile was centrifuged at 9,400×g for 5 min. The resulting supernatants were collected, and an aliquot of each supernatant (100 μL) was diluted with 100 μL of water and analyzed via the same HPLC method used for quality control (fitted with a highly sensitive positron detector for radioactivity). The percent ratio of intact compound to the total radioactivity on the HPLC chromatogram was calculated as %=[(peak area for intact compound)/(total peak area)]×100.

[7] = target: T1, caspase-3; experiment: Incubation of PET tracer with recombinant caspase-3, radio-HPLC; assay type: biochemical; conditions: same condition
Description: To evaluate the activatable PET tracer 1 for caspase-3 detection, it was first incubated with recombinant caspase-3 in buffer.

[8] = tested on: HeLa cell pellets; experiment: MRI T1 of HeLa cell pellets at 1 T; assay type: cell-based, human; conditions: 250 μM, 24 h
Description: Thus, higher caspase-3 activity in apoptotic cells can trap probe 15 inside cells, resulting in higher MRI contrast for cell apoptosis imaging.

Structure (SMILES)	difference in SI enhancement between treated and baseline tumors [1]	products observed after incubation with caspase-3 [2]	reduction of relaxivity after incubation with caspase-3 [3]	uptake of Gd in STS-treated cells compared with probe 15 [4]	uptake difference between before and after treatment ([5]; control tracer)	change of T/M ratio ([5]; mouse, in vivo)	uptake in treated and non-treated tumors compared with 1 ([5]; mouse, in vivo)	intact tracer in mouse serum [6]	cleavage by caspase-3 [7]	difference in T1 between STS-treated and non-treated cells [8]	r1 relaxivity without caspase-3 activation [3]
CCSSCC(NC(=O)C(CC(=O)O)NC(=O)C(NC(=O)C(CCC(=O)O)NC(=O)C(CC(=O)O)NC(C)=O)C(C)C)C(=O)NC(CCCCNC(=O)CN1CCN(CC(=O)[O-])CCN(CC(=O)[O-])CCN(CC(=O)[O-])CC1)C(=O)Nc1ccc2nc(C3=NC(C(=O)NCCCOc4ccc5ncccc5c4)CS3)sc2c1.[Gd+3] (stereo not drawn) [1-ctrl (19)] (Ac-DEVDC(SEt)K(DOTA)[X1]-X3; configuration not given here)	no significant difference in SI enhancement	only the DEVD peptide cleaved and disulfide reduced product was observed	14%	much lower uptake of Gd							
CSCC(NC(=O)C(CC(=O)O)NC(=O)C(NC(=O)C(CCC(=O)O)NC(=O)C(CC(=O)O)NC(C)=O)C(C)C)C(=O)NC(Cc1cn(CCOCCOCCOCC[18F])nn1)C(=O)Nc1ccc2nc(C3=NC(C(=O)NCCCOc4ccc5ncccc5c4)CS3)sc2c1 (stereo not drawn) [1-D]					less than 0.2 % ID/g	did not show significant increases	much lower than that of 1	90%	could not be cleaved by caspase-3		
CNC[C@H](O)[C@@H](O)[C@H](O)[C@H](O)CO.O=C([O-])CN1CCN(CC(=O)[O-])CCN(CC(=O)O)CCN(CC(=O)[O-])CC1.[Gd+3] [Dotarem, reference compound]				much lower uptake of Gd						no significant reduction in T1	4.8 mM⁻¹ s⁻¹
